The record followed here is patent US8202893B2, “Cannabinergic lipid ligands” (University of Connecticut, priority 2004, dated 2012).

SMILES strings stand for the structures. Where two headings read alike, the source gives them in different places.

One assay has as its target T1, CB1 cannabinoid receptor (Rattus norvegicus, UniProt P20272).
T1 construct: membranes were prepared from rat forebrain membranes; from tissue; host or cells: rat forebrain
The assay is described as follows: CB1 receptor binding, [3H]CP-55,940 displacement. As to conditions: rat forebrain membranes. The protocol: Some inventive analogs were tested for CB2 receptor binding affinity and for CB1 receptor affinity (to determine selectivity). […] The lower the Ki value, the higher the binding affinity. […] For the CB1 receptor binding studies, membranes were prepared from rat forebrain membranes according to the procedure of P. R. Dodd et al, A Rapid Method for Preparing Synaptosomes: Comparison with Alternative Procedures, Brain Res., 107-118 (1981). The binding of the novel analogues to the CB1 cannabinoid receptor was assessed as described in W. A. Devane et al, Determination and Characterization of a Cannabinoid Receptor in a Rat Brain, Mol. Pharmacol., 34, 605-613 (1988) and A. Charalambous et al, 5′-azido Δ^8-THC: A Novel Photoaffinity Label for the Cannabinoid Receptor, J. Med. Chem., 35, 3076-3079 (1992) with the following changes. The above articles are incorporated by reference herein.
Membranes, previously frozen at −80° C., were thawed on ice. To the stirred suspension was added three volumes of TME (25 mM Tris-HCl buffer, 5 mM MgCl2 and 1 mM EDTA) at a pH 7.4. The suspension was incubated at 4° C. for 30 min. At the end of the incubation, the membranes were pelleted and washed three times with TME.
(§1) The treated membranes were subsequently used in the binding assay described below. Approximately 30 μg of membranes were incubated in silanized 96-well microtiter plate with TME containing 0.1% essentially fatty acid-free bovine serum albumin (BSA), 0.8 nM [^3H] CP-55,940, and various concentrations of test materials in a final volume of 200 μL. The assays were incubated for 1 hour at 30° C. and then immediately filtered using Packard Filtermate 196 harvester and Whatman GF/C filterplates and washed with wash buffer (TME) containing 0.5% BSA. Radioactivity was detected using MicroScint 20 scintillation cocktail added directly to the dried filterplates, and the filterplates were counted using a Packard Instruments Top-Count. Nonspecific binding was assessed using 100 nM CP-55,940. Data collected from three independent experiments performed with duplicate determinations was normalized between 100% and 0% specific binding for [^3H] CP-55,940, determined using buffer and 100 nM CP-55,940. The normalized data was analyzed using a 4-parameter nonlinear logistic equation to yield IC50 values.

In another assay the target is T2, CB2 receptor (Mus musculus, UniProt P47936).
T2 construct: membranes were prepared from frozen mouse spleen; from tissue; host or cells: mouse spleen
The assay is described as follows: CB2 receptor binding, [3H]CP-55,940 displacement. As to conditions: mouse spleen membranes. The protocol: as §1
For the CB2 receptor binding studies, membranes were prepared from frozen mouse spleen essentially according to the procedure of P. R. Dodd et al, A Rapid Method for Preparing Synaptosomes: Comparison with Alternative Procedures, Brain Res., 226, 107-118 (1981) which is incorporated by reference herein. Silanized centrifuge tubes were used throughout to minimize receptor loss due to adsorption. The CB2 binding assay was conducted in the same manner as for the CB1 binding assay. The binding affinities (Ki) were also expressed in nanomoles (nM).

For assay [1], the target named is T3, FAAH (fatty acid amide hydrolase) (Rattus norvegicus, UniProt P97612).
T3 construct: Anandamide Amidase Activity in Rat Brain Microsomes; from tissue; host or cells: rat brain microsomes (by the cited procedure)
T3 sequence (P97612 1-579): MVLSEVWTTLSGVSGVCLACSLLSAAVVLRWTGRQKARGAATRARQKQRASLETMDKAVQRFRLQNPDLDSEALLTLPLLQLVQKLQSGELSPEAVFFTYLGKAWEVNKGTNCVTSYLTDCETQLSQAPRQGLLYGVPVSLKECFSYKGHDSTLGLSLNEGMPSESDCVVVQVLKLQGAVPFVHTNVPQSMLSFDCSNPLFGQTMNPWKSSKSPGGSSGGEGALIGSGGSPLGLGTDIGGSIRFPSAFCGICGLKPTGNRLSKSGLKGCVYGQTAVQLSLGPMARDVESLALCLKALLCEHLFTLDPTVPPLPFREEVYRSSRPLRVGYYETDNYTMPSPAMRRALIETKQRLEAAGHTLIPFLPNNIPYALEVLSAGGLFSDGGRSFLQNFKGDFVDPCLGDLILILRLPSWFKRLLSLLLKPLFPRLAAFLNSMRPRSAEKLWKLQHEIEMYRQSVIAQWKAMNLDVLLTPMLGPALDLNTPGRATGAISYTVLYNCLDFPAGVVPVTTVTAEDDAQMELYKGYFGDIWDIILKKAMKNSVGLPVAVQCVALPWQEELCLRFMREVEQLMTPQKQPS
The assay is described as follows: FAAH screening: inhibition of anandamide metabolism to arachidonic acid. It is filed as biochemical. As to conditions: 25 nmoles compound with 25 nmoles AEA, 75 μg enzyme, 250 μL, 15 min. The protocol: The FAAH (fatty acid amide hydrolase) enzyme preparation was obtained according to the procedure of Lang and Makriyannis et al High Performance Liquid Chromatographic Determination of Anandamide Amidase Activity in Rat Brain Microsomes, Analytical Biochemistry (238): 40-45, 1996.
All compound solutions were made to a concentration of 10 mM in DMSO. Three tests were performed on each compound: hydrolysis, to determine the stability of the compound in assay conditions without the enzyme present; metabolism, to determine the stability of the compound with the enzyme present; and inhibition of anandamide (native substrate) metabolism to arachidonic acid.
(§2) Again the reaction mixture was treated in the same manner as described above and the concentrations of AEA and AA were calculated using external standards. Percent inhibition was calculated using the following equation: % Inhib.=(AA15-AA0)i/(AA15-AA0)s where (AA15-AA0)c is the amount of arachidonic acid formed over 15 minutes from AEA with the inhibitor present and (AA15-AA0)s is the amount of arachidonic acid formed over 15 minutes from AEA when the inhibitor is not present. […] The reaction mixtures were treated as described above and the amount of AA formed was calculated. The software package GraphPad Prism was utilized to calculate IC50 and Ki. HPLC Conditions:
Chromatographic separation was achieved using an Ultrasphere ODS Pre-column (4.6×45 mm) from Beckman. Hardware consisted of a Waters Millennium HPLC system with a 20 μL injection loop. The mobile phase consisted of 8.5% o-phosphoric acid:acetonitrile (3:7), run isocratically at a rate of 1 mL/min and detection at 204 nm. The total run time was 8 minutes with AEA eluting at 2.2 minutes and AA at 6.0 minutes.

The test system of a further assay is anandamide transporter. The assay is described as follows: [3H]Anandamide transporter competition assay. To be noted: human CCF-STG1 astrocytoma cells, 10 nM [3H]anandamide. The assay is classed as cell-based. The protocol:
Human CCF-STG1 astrocytoma cells (American Type Culture collection) were grown in RPMI1640 culture medium containing 2 mM L-glutamine, 4.5 g/L glucose, 10 mM HEPES, and 1.0 mM sodium pyruvate, 10% FBS, cultures at 37° C. with 5% CO2. For standard competition assays, confluent cells grown in 24-well plates were rinsed and preincubated for 10 min at 37° C. in assay buffer (Hank's Balanced Salt Solution containing 0.1% DMSO, 10 mM HEPES) plus test compounds (at their final concentrations of 0.01-100 μM). After having discarded the preincubation media, the cells were incubated for 4 min in 0.2 ml assay buffer containing 10 nM [^3H] anandamide (137.6 Ci/mmol, New England Nuclear) plus test compounds. Reactions were stopped by removing the incubation media and rinsing the cells three times with 0.5 ml of ice-cold HBSS buffer containing 0.1% fatty acid-free Bovine Serum Albumin (sigma). Radioactive material in Triton X-100 cell extracts was measured by liquid scintillation counting. A minimum of three independent experiments conducted in six replicates was used to define the concentration needed to produce half-maximal inhibition (IC50) for each compound. IC50 values were obtained by nonlinear regression fitting of the data, using the PRIZM software package. Data are expressed as mean±SEM.

The target in another assay is T4, Mag-lipase (Rattus norvegicus, UniProt Q8R431).
T4 construct: supernatant from final spin in the anandamide amidase preparation; from tissue; host or cells: supernatant (soluble fraction) of the anandamide amidase preparation, rat brain by the cited procedure
T4 sequence (Q8R431 1-303): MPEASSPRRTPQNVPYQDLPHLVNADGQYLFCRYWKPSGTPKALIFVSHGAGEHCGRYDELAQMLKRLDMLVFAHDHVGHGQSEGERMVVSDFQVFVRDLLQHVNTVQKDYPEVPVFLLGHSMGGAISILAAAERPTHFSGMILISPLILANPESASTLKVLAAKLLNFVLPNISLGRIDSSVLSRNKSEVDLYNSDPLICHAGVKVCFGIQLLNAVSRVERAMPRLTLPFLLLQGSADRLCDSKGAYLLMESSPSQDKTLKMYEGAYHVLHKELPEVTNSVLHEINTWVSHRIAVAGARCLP
The assay is described as follows: Inhibition of MAG-lipase: 2-AG metabolism to arachidonic acid. The assay is classed as biochemical. As to conditions: 30 nmoles compound with 30 nmoles 2-AG, 30 μg enzyme, 300 μL, 20 min. The protocol:
All compound solutions were made to a concentration of 10 mM in DMSO. Three tests were performed on each compound: hydrolysis, to determine the stability of the compound in assay conditions without the enzyme present; metabolism, to determine the stability of the compound with the enzyme present; and inhibition of 2-Arachidonoyl glycerol (native substrate) metabolism to arachidonic acid.
as §2, with “The inhibition of 2-AG metabolism was measured by mixing 30 nmoles of the compound with 30 nmoles 2-AG, and 30 μg enzyme preparation in TME buffer (final volume of 300 μL). Again” for “Again”, “2-AG” for “AEA”, “Inhib.=(AA20-AA0)i/(AA20-AA0)s” for “Inhib.=(AA15-AA0)i/(AA15-AA0)s”, “(AA20-AA0)i” for “(AA15-AA0)c”, “20” for “15”, “(AA20-AA0)s” for “(AA15-AA0)s”
Chromatographic separation was achieved using an Ultrasphere ODS Pre-column (4.6×45 mm) from Beckman. Hardware consisted of a Waters Millennium HPLC system with a 20 μL injection loop. The mobile phase consisted of 8.5% o-phosphoric acid:acetonitrile (3:7), run isocratically at a rate of 1 mL/min and detection at 204 nm. The total run time was 8 minutes with 2-AG eluting at 3.0 minutes and AA at 6.0 minutes.

Setting [2] is: with PMSF (second value of cell), read-out: Ki CB1 (nM) (o/w PMSFQ).
Where [3] appears, read: without PMSF (first value of cell), read-out: Ki CB1 (nM) (o/w PMSFQ).
[4] abbreviates: with PMSF (second value of cell), read-out: Ki CB1 (nM) (o/w PMSF).
The mark [5] stands for this setting: without PMSF (first value of cell), read-out: Ki CB1 (nM) (o/w PMSF).

T1 sequence (P20272 whole entry): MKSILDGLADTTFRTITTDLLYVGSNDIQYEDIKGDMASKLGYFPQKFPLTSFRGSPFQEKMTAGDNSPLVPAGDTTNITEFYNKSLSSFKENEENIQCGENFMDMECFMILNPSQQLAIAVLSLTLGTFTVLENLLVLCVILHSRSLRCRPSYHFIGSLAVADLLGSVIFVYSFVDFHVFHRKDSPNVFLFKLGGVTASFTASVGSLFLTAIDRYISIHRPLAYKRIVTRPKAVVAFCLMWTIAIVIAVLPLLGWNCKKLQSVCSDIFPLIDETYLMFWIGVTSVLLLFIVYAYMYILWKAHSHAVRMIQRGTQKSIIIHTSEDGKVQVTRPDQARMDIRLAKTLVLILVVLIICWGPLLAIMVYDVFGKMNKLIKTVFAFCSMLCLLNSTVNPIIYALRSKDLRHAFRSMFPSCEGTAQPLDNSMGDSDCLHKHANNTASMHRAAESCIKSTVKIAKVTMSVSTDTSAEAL
T2 sequence (P47936 whole entry): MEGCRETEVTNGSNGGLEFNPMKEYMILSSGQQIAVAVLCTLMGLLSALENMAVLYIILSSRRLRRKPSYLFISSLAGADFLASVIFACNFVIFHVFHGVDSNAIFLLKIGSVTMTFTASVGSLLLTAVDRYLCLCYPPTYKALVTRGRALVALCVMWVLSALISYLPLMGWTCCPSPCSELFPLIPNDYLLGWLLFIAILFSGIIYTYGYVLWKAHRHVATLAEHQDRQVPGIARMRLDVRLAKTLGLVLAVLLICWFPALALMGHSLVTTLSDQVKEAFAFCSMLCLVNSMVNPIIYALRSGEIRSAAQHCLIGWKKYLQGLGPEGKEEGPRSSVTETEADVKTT

Turning to `N#CCCCCC/C=C\C/C=C\C/C=C\C/C=C\CCCC(=O)NC1CC1` [Compound A19], the Ki at CB1 cannabinoid receptor (setting [2]) turned out to be 0.04 nM; on CB1 cannabinoid receptor (setting [3]), 32.9 nM; on CB2 receptor, 5.7 nM. In assay [1], the “FAAH % Inhibition” value came to 57%. For the same compound, in the assay with anandamide transporter (read-out: IC50 AT inhibition), the IC50 was 23500 nM.
The corresponding values for `O=C(CCC/C=C\C/C=C\C/C=C\C/C=C\CCCCCCl)NC1CC1` [Compound A20] are 0.17 nM, 57.9 nM, 28.3 nM, 67% and 4100 nM.
In the case of `CCCCCN(C)C/C=C\C/C=C\C/C=C\C/C=C\CCCCNC(=O)c1ccc(O)cc1` [Compound A26], the Ki on CB1 cannabinoid receptor (setting [2]) was 2150 nM; on CB1 cannabinoid receptor (setting [3]), 4720 nM; at CB2 receptor, 2910 nM. The “Mag-Lipase % Inhibition” value at Mag-lipase is 9.8%. In the assay with anandamide transporter (read-out: IC50 AT inhibition), the IC50 came out at 5400 nM.
The corresponding values for `CCCCCN(C)C/C=C\C/C=C\C/C=C\C/C=C\CCCCNC(=O)c1ccc(O)cc1` [Compound A27] are 1620 nM, 2220 nM, 2560 nM, 4.2% and 7100 nM.
With `CCCCC/C=C\C/C=C\C/C=C\C/C=C\CCCCOC(=O)N[C@H](C)CO` [Compound B1], the Ki at CB1 cannabinoid receptor (setting [4]) was 1440 nM; at CB1 cannabinoid receptor (setting [5]), 1330 nM; at CB2 receptor it was 5070 nM. In addition, the “FAAH % Inhibition” value in assay [1] turned out to be 14.7%. Moreover, in the assay on anandamide transporter (read-out: IC50 (AT inhib.)), the IC50 was found to be 7100 nM.
For `CCCCC/C=C\C/C=C\C/C=C\C/C=C\CCCCOC(=O)N[C@@H](C)CO` [Compound B2] the same measures were 996 nM, 1100 nM, 2150 nM, 14.3% and 6400 nM.
The corresponding values for `CCCCCC=CCC=CCC=CCC=CCCCCOC(=O)NCC(C)O` (centres unmarked) [Compound B4] are 320 nM, 338 nM, 254 nM, 7% and 400 nM.
`CCCCC/C=C\C/C=C\C/C=C\C/C=C\CCCCOC(=O)NC(C)C` [Compound B5]: the results for the Ki on CB1 cannabinoid receptor (setting [4]), at CB1 cannabinoid receptor (setting [5]) and on CB2 receptor were 343 nM, 510 nM and 543 nM, respectively. Moreover, the “FAAH % Inhibition” value in assay [1] was determined as 4.5%. For the same compound, the IC50 in the assay on anandamide transporter (read-out: IC50 (AT inhib.)) was found to be 21900 nM.
For `CCCCC/C=C\C/C=C\C/C=C\C/C=C\CCCCOC(=O)Nc1ccc(O)cc1` [Compound B9] the same measures were 3300 nM, 5390 nM, 533 nM, 27.3% and 6600 nM.
Consider `CCCCC/C=C\C/C=C\C/C=C\C/C=C\CCCCOC(=O)NC1=NCCS1` [Compound B10], for which the “Mag-Lipase % Inhibition” value at Mag-lipase turned out to be 34.0%. In addition, the IC50 in the assay on anandamide transporter (read-out: IC50 (AT inhib.)) amounted to 8600 nM.
